Values quoted from earlier work as cited in US7083961B1 (priority 2002, dated 2006).

Biological target: T. foetus IMPDH (Tritrichomonas foetus, UniProt P50097)
Conditions: T. foetus enzyme, without cofactor bound

T. foetus IMPDH, sequence (P50097 whole entry): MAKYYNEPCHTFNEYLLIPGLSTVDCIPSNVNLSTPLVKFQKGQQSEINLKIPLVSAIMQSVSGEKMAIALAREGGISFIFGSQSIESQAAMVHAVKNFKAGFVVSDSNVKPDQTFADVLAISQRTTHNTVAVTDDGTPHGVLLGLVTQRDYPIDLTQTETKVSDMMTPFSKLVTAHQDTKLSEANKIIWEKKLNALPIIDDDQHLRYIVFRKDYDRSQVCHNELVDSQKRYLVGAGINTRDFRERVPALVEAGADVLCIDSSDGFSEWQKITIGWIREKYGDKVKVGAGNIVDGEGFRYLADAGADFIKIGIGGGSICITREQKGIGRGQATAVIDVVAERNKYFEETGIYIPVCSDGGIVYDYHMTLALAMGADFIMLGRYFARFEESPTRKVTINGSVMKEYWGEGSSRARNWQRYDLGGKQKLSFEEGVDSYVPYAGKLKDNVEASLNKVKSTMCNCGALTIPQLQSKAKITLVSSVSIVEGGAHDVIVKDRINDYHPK

O=c1[nH]c(=O)c2ncn([C@@H]3O[C@H](COP(=O)(O)O)[C@@H](O)[C@H]3O)c2[nH]1 [XMP, xanthosine monophosphate]
off-rate: 17 s⁻¹
